SMILES strings stand for the structures.

The data set can be described thus: Measurement of mRNA encapsulation in lipid nanoparticles (Quant-iT Ribogreen). It counts as physicochemical. Conditions: Leptin mRNA in LNP. The method, then: All equipment and disposable supplies are certified free of RNase activity by the manufacturer or rendered RNase free by use of the RNaseZap reagent (LifeTechnologies). mRNA is encapsulated at a cationic lipid amine to mRNA phosphate (N:P) molar ratio of 4:1. Lipids (cationic lipid, DSPC, cholesterol and lipidated PEG or stealth lipid) are dissolved in ethanol. The molar ratios are 40:10:38:2, respectively. The mixture is sonicated briefly, then gently agitated for 5 minutes and then maintained at 37° C. until use. mRNA is exchanged into citrate buffer pH 5.8-6.0 by use of Amicon Ultra-15 centrifugal concentrators, and the final concentration is adjusted to 0.5 mg/ml and held at 37° C. until use. An equal volume of lipids in ethanol, mRNA in citrate buffer, and citrate buffer alone are drawn into disposable syringes.
Tubing leading from syringes containing lipids and mRNA are attached to the T junction, and tubing leading from the syringe containing citrate buffer alone is paired with the tubing exiting the T-junction over a collection vessel containing a stir bar on an active stir plate. Syringes are placed in a syringe pump set to expel contents at a flow rate of 1 ml per minute. The pump is activated, and the collected mRNA in lipid nanoparticles is transferred to SnakeSkin dialysis tubing (10,000 MWCO, Thermo Scientific). Material is dialyzed against RNAse- and pyrogen-free 1× phosphate buffered saline overnight at 4° C.
Percent encapsulation of mRNA in lipid nanoparticles is determined using the Quant-iT Ribogreen RNA Assay kit (Life Technologies). The LNP-mRNA suspension is assayed in buffer (mRNA outside the particle), and buffer plus Triton X-100 detergent (total mRNA). The difference calculated is the mRNA inside the particle. Prepare a 1000 ng/mL stock from the RNA provided in the kit and use this to generate a standard curve (0 ng/ml, 15.63-1000 ng/ml) in TE and TE+0.75% Triton X-100. Prepare LNP-mRNA samples in TE buffer and TE buffer+0.75% Triton X-100 with appropriate dilution so that reading is in the range of standard curve (400-2,000 fold). In a 384-well plate (Costar non-treated #3573) add 0.04 ml of standard (in duplicate) or sample (in triplicate) per well. Dilute Ribogreen reagent 240-fold in TE buffer and add 0.06 ml per well. Mix contents of wells and measure fluorescence (excitation=480 nm, emission=520 nm). Subtract background values (no RNA) from standard and test sample values and determine the concentrations of RNA in the samples using the standard curves. Determine the percent encapsulation of the sample by dividing the difference in concentrations between sample+triton and sample in buffer alone by the sample+triton concentration.
For `CCCCCCCCOC(CCC(=O)OCC(COC(=O)CCC(OCCCCCCCC)OCCCCCCCC)COC(=O)C1CCN(C)C1)OCCCCCCCC` (stereo not drawn) [Example 57, 2-(((1-methylpyrrolidine-3-carbonyl)oxy)methyl)propane-1,3-diyl bis(4,4-bis(octyloxy)butanoate)], the “% encapsulation mRNA Leptin” value is 95.2%. Consider `CCCCCCCCOC(CCC(=O)OCC(COC(=O)CCC(OCCCCCCCC)OCCCCCCCC)COC(=O)C1(C)CCN(C)C1)OCCCCCCCC` (stereo not drawn) [Example 58, 2-(((1,3-dimethylpyrrolidine-3-carbonyl)oxy)methyl)propane-1,3-diyl bis(4,4-bis(octyloxy)butanoate)], for which the “% encapsulation mRNA Leptin” value came out at 86.0%. The result for `CCCCCCCCOC(CCC(=O)OCC(COC(=O)CCC(OCCCCCCCC)OCCCCCCCC)COC(=O)CCN(C)C)OCCCCCCCC` [Example 59, 2-(((3-(dimethylamino)propanoyl)oxy)methyl)propane-1,3-diyl bis(4,4-bis(octyloxy)butanoate)] reads 76.6%; that for `CCCCCCCCOC(CCCCC(=O)OCC(COC(=O)CCCCC(OCCCCCCCC)OCCCCCCCC)COC(=O)C1CCN(C)C1)OCCCCCCCC` (stereo not drawn) [Example 60, 2-(((1-methylpyrrolidine-3-carbonyl)oxy)methyl)propane-1,3-diyl bis(6,6-bis(octyloxy)hexanoate)], 89.1%.

With `CCCCCCCCCCCCCCCC(=O)OCC(COC(=O)CCCCC(COC(=O)CCCCCCC)COC(=O)CCCCCCC)COC(=O)C1CCN(C)C1` (stereo not drawn) [Example 63, 2-(5-(3-((1-methylpyrrolidine-3-carbonyl)oxy)-2-((palmitoyloxy)methyl)propoxy)-5-oxopentyl)propane-1,3-diyl dioctanoate], the “% encapsulation mRNA Leptin” value was 18.8%.

Take `CCCCCCCCCCCCCC(=O)OCC(COC(=O)CCCCC(COC(=O)CCCCCCC)COC(=O)CCCCCCC)COC(=O)C1CCN(C)C1` (stereo not drawn) [Example 64, 2-(5-(3-((1-methylpyrrolidine-3-carbonyl)oxy)-2-((tetradecanoyloxy)methyl)propoxy)-5-oxopentyl)propane-1,3-diyl dioctanoate]: the “% encapsulation mRNA Leptin” value stood at 87.9%.

On to `CCCCCCCCCCCCCC(=O)OCC(COC(=O)CCC(OCCCCCCCC)OCCCCCCCC)COC(=O)C1CCN(C)C1` (stereo not drawn) [Example 66, 3-((4,4-bis(octyloxy)butanoyl)oxy)-2-((tetradecanoyloxy)methyl)propyl 1-methylpyrrolidine-3-carboxylate], for which the “% encapsulation mRNA Leptin” value came out at 70.5%. The result for `CCCCCCCCCCCCCCCC(=O)OCC(COC(=O)CCC(OCCCCCCCC)OCCCCCCCC)COC(=O)C1CCN(C)C1` (stereo not drawn) [Example 67, 3-((4,4-bis(octyloxy)butanoyl)oxy)-2-((palmitoyloxy)methyl)propyl 1-methylpyrrolidine-3-carboxylate] reads 62.8%.

As to `CCCCCCCCOC(CCC(=O)OCC(COC(=O)CCCCCCC(=O)OC)COC(=O)C1CCN(C)C1)OCCCCCCCC` (stereo not drawn) [Example 68, 1-(3-((4,4-bis(octyloxy)butanoyl)oxy)-2-(((1-methylpyrrolidine-3-carbonyl)oxy)methyl)propyl) 8-methyl octanedioate], the “% encapsulation mRNA Leptin” value is 5.9%. As to `CCCCCCCCOC(=O)CCCCCCCCC(=O)OCC(COC(=O)CCC(OCCCCCCCC)OCCCCCCCC)COC(=O)C1CCN(C)C1` (stereo not drawn) [Example 69, 1-(3-((4,4-bis(octyloxy)butanoyl)oxy)-2-(((1-methylpyrrolidine-3-carbonyl)oxy)methyl)propyl) 10-octyl decanedioate], the “% encapsulation mRNA Leptin” value is 79.3%. The result for `CCCCCCCCCCCCC(CCOC(=O)OCC(COC(=O)CCCCCCC(=O)OC)COC(=O)CCC(OCCCCCCCC)OCCCCCCCC)OC(=O)OCCCN(C)C` (stereo not drawn) [Example 70, 1-(16-(((4,4-bis(octyloxy)butanoyl)oxy)methyl)-9-dodecyl-2-methyl-7,13-dioxo-6,8,12,14-tetraoxa-2-azaheptadecan-17-yl) 8-methyl octanedioate] reads 92.1%; that for `CCCCCCCCOC(=O)CCCCCCCCC(=O)OCC(COC(=O)CCCCC(OCC(CCC)CCC)OCC(CCC)CCC)COC(=O)C1(C)CCN(C)CC1` (stereo not drawn) [Example 71, 1-(3-((6,6-bis((2-propylpentyl)oxy)hexanoyl)oxy)-2-(((1,4-dimethylpiperidine-4-carbonyl)oxy)methyl)propyl) 10-octyl decanedioate], 96.5%; that for `CCCC(CCC)COC(CCCCC(=O)OCC(COC(=O)CCCCCCC(=O)OC)COC(=O)C1(C)CCN(C)CC1)OCC(CCC)CCC` (stereo not drawn) [Example 72, 1-(3-((6,6-bis((2-propylpentyl)oxy)hexanoyl)oxy)-2-(((1,4-dimethylpiperidine-4-carbonyl)oxy)methyl)propyl) 8-methyl octanedioate], 31.2%. Regarding `COC(=O)CCCCCCC(=O)OCC(COC(=O)CCCCCCC(=O)OC)COC(=O)C1CCN(C)C1` (stereo not drawn) [Example 73, 8-dimethyl O′1,O1-(2-(((1-methylpyrrolidine-3-carbonyl)oxy)methyl)propane-1,3-diyl)dioctanedioate], the “% encapsulation mRNA Leptin” value is reported as 9.3%. Take `CCCCCCCCCCCCC(CCOC(=O)OCC(COC(=O)CCCCCCC(=O)OC)COC(=O)CCCCCCC(=O)OC)OC(=O)OCCCN(C)C` (stereo not drawn) [Example 74, O′1,O1-(2-(7-dodecyl-14-methyl-3,9-dioxo-2,4,8,10-tetraoxa-14-azapentadecyl)propane-1,3-diyl) 8-dimethyl dioctanedioate]: the “% encapsulation mRNA Leptin” value was determined as 23.0%.
